One series deals with E. coli. Kind of series: Test A MIC/MBC study. The class given is cell-based. The settings on record: for MBC: killing of ≥99.9% of the organisms; for MIC: tryptic soy broth, 37° C. overnight. On the procedure: (§1) MIC/MBC studies were conducted according to a modified literature procedure (LaDow JE, et al. European Journal of Medicinal Chemistry. 46 (2011) 4219-4226). In brief, stock amphiphile solutions were made in 1 mL double-distilled water (0.1M C8 and C10; 0.02M C12), filter sterilized, and sonicated for five minutes. Stocks were then diluted 100× in tryptic soy broth and vortexed. This broth was serially diluted in fresh broth and 100 μL “doped” broth was transferred to 96-well microtiter plate. 10^6 Cfu/mL inoculums were prepared for E. coli and S. aureus. 100 μL inoculum was added to the wells. Plates were put on a shaker for 5 minutes to mix inoculum and broth. Plates were incubated at 37° C. overnight. Wells were visually analyzed the next day by growth or no growth. After MICs were determined, aliquots were taken from each well, plated, and incubated to determine the MBC values for each compound. MBC values were defined as killing of ≥99.9% of the organisms, which corresponds to a 3-log reduction.

Series [1] concerns S. aureus. Nature of the series: Test A MIC/MBC study. It counts as cell-based. The settings on record: Staphylococcus aureus; for MBC: killing of ≥99.9% of the organisms; for MIC: tryptic soy broth, 37° C. overnight. On the procedure: as §1
In another series the test system is A. baumannii. Nature of the series: CLSI/NCCLS broth microdilution assay. It counts as cell-based. The note with it: 18 hours. On the technique in general: In broth dilution the organism is exposed to a series of concentrations in liquid medium.
A further series has as its system B. cereus. Kind of series: CLSI/NCCLS broth microdilution assay. It counts as cell-based.
In another series the test system is B. cepacia. Nature of the series: CLSI/NCCLS broth microdilution assay. The class given is cell-based. The settings on record: 18 hours.
The test system of another series is B. neotomae. Nature of the series: CLSI/NCCLS broth microdilution assay. The note with it: 18 hours. It counts as cell-based.
Another series deals with E. faecium. Kind of series: CLSI/NCCLS broth microdilution assay. It counts as cell-based.
Another series has as its system K. pneumoniae. Kind of series: CLSI/NCCLS broth microdilution assay. It counts as cell-based. The settings on record: 18 hours.
The test system of a further series is L. pneumophilia. Kind of series: CLSI/NCCLS broth microdilution assay. The class given is cell-based. The note with it: 18 hours.
Another series has as its system P. aeruginosa. Kind of series: CLSI/NCCLS broth microdilution assay. It counts as cell-based. The note with it: 18 hours.
Series [2] relates to S. aureus. The class given is cell-based.
The subject of a further series is Y. pseudotuberculosis. It counts as cell-based. The settings on record: 18 hours.
Another series relates to S. epidermidis. Kind of series: CLSI/NCCLS broth microdilution assay. It counts as cell-based.
For series [3], the system named is Staphylococcus aureus Rosenbach ATCC 29213. Kind of series: Broth microdilution assay.
Series [4] has as its system Listeria monocytogenes ATCC 49594. Kind of series: Broth microdilution assay.
The subject of series [5] is Escherichia coli ATCC 43895. Kind of series: Broth microdilution assay.
Series [6] deals with Pseudomonas aeruginosa ATCC 14213. Kind of series: Broth microdilution assay.
The mark [7] stands for this setting: Escherichia coli, read-out: MIC.
Where [8] appears, read: S. aureus (G+), TSB, 37° C., 24 h.
The mark [9] stands for this setting: L. monocytogenes (G+), TSB, 37° C., 24 h.
Setting [10] is: E. coli (G−), TSB, 37° C., 24 h.
The mark [11] stands for this setting: P. aeruginosa (G−), TSB, 37° C., 24 h.
Where [12] appears, read: Staphylococcus aureus, ATCC29213, 24 h.
[13] abbreviates: Listeria monocytogenes, ATCC49594, 24 h.
Setting [14] is: Escherichia coli, ATCC43895, 24 h.
Setting [15] is: Pseudomonas aeruginosa, ATCC14213, 24 h.

Experimental findings from patent US10556856B2, “Antibacterial agents” (Rutgers, The State University of New Jersey, priority 2014, dated 2020) are described below.

The structures appear in SMILES notation. Values joined by “and” are separate entries in the source; they are usually repeats but may differ in a detail not shown here. Equal entries are not always repeated. Structures can show the parent of a compound that is named as a salt. Where two headings read alike, the source gives them in different places.

In the case of `[H]/N=C(/N)N[C@H]1[C@H](O)[C@@H](O)[C@H](O[C@@H]2O[C@@H](C)[C@](O)(C=O)[C@H]2O[C@@H]2O[C@@H](CO)[C@H](O)[C@@H](O)[C@@H]2NC)[C@@H](N/C(N)=N\[H])[C@@H]1O` [Streptomycin Sulfate, reference compound], the MBC against E. coli (Escherichia coli) and against S. aureus [1] was less than 100 µg/mL each time. Moreover, the MIC was less than 100 µg/mL in the series with E. coli (setting [7]), <100 (<100) μg/mL with E. coli and less than 100 µg/mL in the series on S. aureus [1].

In the case of `CCCNC(=O)[C@H](OC(=O)CCCCCCCCCCCN)[C@@H](OC(=O)CCCCCCCCCCCN)C(=O)NCCC.Cl.Cl` [Amphiphile B11], the MBC against E. coli (Escherichia coli) was 400 µM and 280 µg/mL; with S. aureus [1] it was 50 µM and 35 µg/mL. Also, the MIC with E. coli (setting [7]) was 400 µM and 280 µg/mL; against S. aureus [1], 25 µM and 17.5 µg/mL; in the series on A. baumannii it was greater than 50 µg/mL; against B. cereus (B. cereus, 18 hours), 50 µg/mL; against B. cepacia, greater than 50 µg/mL; against B. neotomae it was 25 µg/mL. For the same compound, the MIC is 25 µg/mL against E. faecium (E. faecium, 18 hours); greater than 50 µg/mL with K. pneumoniae; greater than 50 µg/mL in the series on L. pneumophilia; greater than 50 µg/mL with P. aeruginosa; 25 µg/mL against S. aureus [2] (S. aureus, 18 hours); greater than 50 µg/mL in the series with Y. pseudotuberculosis. Also, the MIC with S. epidermidis (S. epidermidis, 18 hours) is 25 µg/mL; in series [3] (setting [8]), 25 µM; in series [4] (setting [9]) it was 12.5 µM; in [5] (setting [10]), 100 µM; in series [6] (setting [11]), 50 µM. The “Vero Cell Cytotoxicity” value in the series with Vero Cell is 50 µg/mL.

As to `CCCNC(=O)[C@H](OC(=O)CCCCCCCN)[C@@H](OC(=O)CCCCCCCN)C(=O)NCCC.Cl.Cl` [Amphiphile B7], the MBC in the series with E. coli (Escherichia coli) is 1000 µM and 588 µg/mL; with S. aureus [1], 500 µM and 294 µg/mL. For the same compound, the MIC with E. coli (setting [7]) is 1000 µM and 588 µg/mL; in the series on S. aureus [1] it was 500 µM and 294 µg/mL; in series [3] (setting [8]) it was 500 µM; in series [4] (setting [9]), 500 µM; in series [5] (setting [10]) it was 1000 µM; in series [6] (setting [11]), 1000 µM.

Consider `CCCCCCCCCCC(=O)OC(C(=O)NCCN)C(OC(=O)CCCCCCCCCC)C(=O)NCCN.Cl.Cl` (stereo not shown) [Amphiphile G9], for which the MIC was greater than 50 µg/mL against A. baumannii; 6.25 µg/mL in the series with B. cereus; greater than 50 µg/mL in the series with B. cepacia; 3.125 µg/mL with B. neotomae; 6.25 µg/mL against E. faecium; greater than 50 µg/mL in the series on K. pneumoniae. The MIC in the series on L. pneumophilia was 25 µg/mL; against P. aeruginosa, greater than 50 µg/mL; against S. aureus [2], 6.25 µg/mL; against Y. pseudotuberculosis, 6.25 µg/mL; against S. epidermidis, 6.25 µg/mL; in [3] (setting [8]), 500 µM. For the same compound, the MIC in series [4] (setting [9]) was determined as 250 µM; in series [5] (setting [10]) it was 125 µM; in series [6] (setting [11]), 250 µM. In addition, the “Vero Cell Cytotoxicity” value with Vero Cell was 50 µg/mL.

Turning to `CCCCCCCCCCCCOS(=O)(=O)[O-].[Na+]` [SDS, Sodium dodecyl sulfate, reference compound], the MIC was 1000 µM in series [3] (setting [12]), 2000 µM in [4] (setting [13]), greater than 2000 µM in series [5] (setting [14]) and greater than 2000 µM in [6] (setting [15]).

As for `CCCCCCCCC(=O)OC(C(=O)NCCN)C(OC(=O)CCCCCCCC)C(=O)NCCN.Cl.Cl` (stereo not shown) [Amphiphile G7], the MIC in the series with A. baumannii is greater than 50 µg/mL; with B. cereus (B. cereus, 18 hours) it was 6.25 µg/mL; against B. cepacia, greater than 50 µg/mL; with B. neotomae, 3.125 µg/mL; with E. faecium (E. faecium, 18 hours), 6.25 µg/mL; in the series on K. pneumoniae, 50 µg/mL. Besides, the MIC in the series with P. aeruginosa is 25 µg/mL; in the series with Y. pseudotuberculosis it was 12.5 µg/mL; with S. epidermidis it was 12.5 µg/mL; in series [3] (setting [8]) it was 63 μM and 62.5* μM; in series [4] (setting [9]), 63 μM and 62.5* μM; in [5] (setting [10]), 63 µM. Besides, in series [6] (setting [11]), the MIC came out at 125 µM. Further, the “Vero Cell Cytotoxicity” value with Vero Cell was greater than 50 µg/mL.

For the compound `CCCCCCCCCCCCCCCC[N+](C)(C)C` [CTAB, Cetyltrimethylammonium bromide, reference compound], the MIC in [3] (setting [12]) came to 4 µM; in series [4] (setting [13]), 8 µM; in [5] (setting [14]) it was 32 µM; in series [6] (setting [15]), 16 µM.

For the compound `CCCNC(=O)[C@H](OC(=O)CCCCCCCCCN)[C@@H](OC(=O)CCCCCCCCCN)C(=O)NCCC.Cl.Cl` [Amphiphile B9], the MBC against E. coli (Escherichia coli) is 500 µM and 322 µg/mL; against S. aureus [1], 250 µM and 171 µg/mL. The MIC in the series on E. coli (setting [7]) was 500 µM and 322 µg/mL; in the series on S. aureus [1], 125 µM and 80.5 µg/mL; in series [3] (setting [8]) it was 125 µM; in series [4] (setting [9]), 125 µM; in [5] (setting [10]), 500 µM; in [6] (setting [11]) it was 250 µM.

One may read the MBC as the smallest concentration meeting the test's criterion for killing.
